From patent publication US4603142A, “Cholesterol lowering method of use” (Wisconsin Alumni Research Foundation, priority 1984, dated 1986)

How the values were obtained:
[1] = target: T1, HMG-CoA reductase (Homo sapiens, UniProt P04035); experiment: Hepatic HMG-CoA reductase activity in 3-week-old broiler male chickens fed supplemented corn diet; assay type: in vivo, chicken; set-up: preparing subcellular fractions of liver and assay procedures for beta-hydroxy-beta-methylglutaryl coenzyme A (HMG Co-A) reductase; from tissue; host or cells: chicken liver (microsomal fraction); details: liver; for HMG-CoA Reductase: mean ± SD, N = 9
T1 sequence (P04035 1-888): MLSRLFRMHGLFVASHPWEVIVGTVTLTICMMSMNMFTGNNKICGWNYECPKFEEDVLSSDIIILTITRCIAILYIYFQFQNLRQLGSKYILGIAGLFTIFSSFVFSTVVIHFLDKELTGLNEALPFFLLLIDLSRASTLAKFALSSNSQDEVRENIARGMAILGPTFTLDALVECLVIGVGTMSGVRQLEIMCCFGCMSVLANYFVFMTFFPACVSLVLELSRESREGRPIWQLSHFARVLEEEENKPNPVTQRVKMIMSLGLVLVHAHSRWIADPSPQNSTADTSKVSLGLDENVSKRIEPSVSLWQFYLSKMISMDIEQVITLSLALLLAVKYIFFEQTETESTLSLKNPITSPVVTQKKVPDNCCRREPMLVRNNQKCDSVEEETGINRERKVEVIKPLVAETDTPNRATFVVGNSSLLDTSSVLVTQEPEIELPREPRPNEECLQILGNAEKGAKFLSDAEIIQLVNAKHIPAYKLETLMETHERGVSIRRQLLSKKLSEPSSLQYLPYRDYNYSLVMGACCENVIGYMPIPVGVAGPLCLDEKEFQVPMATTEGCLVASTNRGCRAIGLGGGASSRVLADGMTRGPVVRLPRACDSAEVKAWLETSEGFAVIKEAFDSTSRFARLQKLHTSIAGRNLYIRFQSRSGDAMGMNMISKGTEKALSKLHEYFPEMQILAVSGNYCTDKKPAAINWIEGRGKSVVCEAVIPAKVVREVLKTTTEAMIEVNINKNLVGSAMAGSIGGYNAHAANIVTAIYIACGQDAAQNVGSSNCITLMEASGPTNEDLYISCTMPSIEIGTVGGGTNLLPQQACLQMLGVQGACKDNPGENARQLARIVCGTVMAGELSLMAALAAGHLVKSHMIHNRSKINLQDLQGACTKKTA
Description: (§1) These responses were attributed to the presence in the small grains of relatively high concentrations of beta-D-glucans and pentosans. A long-standing interest in lipid metabolism prompted us to examine certain lipogenic and cholesterolgenic enzymes in the tissues of these birds. Methods used for handling blood samples, preparing subcellular fractions of liver and assay procedures for beta-hydroxy-beta-methylglutaryl coenzyme A (HMG Co-A) reductase, fatty acid synthetase (FAS), plasma cholesterol and triglycerides and the statistical treatment of the data have been described [Qureshi AA et al. (1980): Regulation of lipid metabolism in chicken livers by dietary cereals, J Nutr 110:388-393].
For large scale preparation of these compounds, 10 grams of the petroleum ether soluble fraction of HPBF were dissolved in 10 ml petroleum ether and applied to a 90×3.5 cm silicic acid column (Bio-Silica, 100-200 mesh). The column was washed with 2,500 ml petroleum ether followed by stepwise elution with increasing amounts of ether in petroleum ether. Fraction 8 of the column corresponded to HPLC fraction 5. A concentration-dependent suppression of HMG Co-A reductase activity and enhancement of FAS activity was noted within this range. Serum total and LDL cholesterol levels also fell in a dose-dependent response. […] In a companion experiment, using the same control birds, the effect of cholesterol inhibitor I at 5 ppm is compared to the effect of the petroleum ether solubles of HPBF at 20% equivalent on weight gain, HMG Co-A reductase and FAS activities, serum cholesterol and serum triglyceride levels (Table 2). […] Serum triglyceride levels reflected the influence of the diet on FAS activity. […] Cholesterol inhibitor I was a more powerful suppressor of LDL cholesterol (Table 2).
^1 Feeding period was 3 weeks; Time of killing was 0800; Data
expressed as mean ± SD; N = 9 chickens per group; HMGCoA reductase =
hydroxy-methyl-Glutaryl-Coenzyme A reductase.
^2 pmoles of mevalonic acid synthesized per minute per mg of […]

[2] = Serum lipids in 13-week-old WLH male chickens; assay type: in vivo, chicken; details: 20 ppm in corn diet, fed four weeks
Description: as §1
Cholesterol inhibitor I was re-chromatographed by HPLC and the UV absorption spectrum obtained. Maximum absorption occurred at 292 nm. This purified fraction was used for high resolution mass spectrometric analysis. Several scans were made using ionization temperatures from 90-180 degrees Centigrade to increase the possibility of detecting impurities. The high resolution mass spectrometric analysis and measurements of different peaks gave a molecular ion peak at m/e 424 and main peaks at m/e 385, 205 and 165 corresponding to C29 H44 O2 (molecular formula) C25 H36 O2, C13 H17 O2 and C10 H13 O2 moieties, respectively, which are characteristic fragmentation moieties for d-alpha-tocotrienol. Lemon grass oil is a rich source of d-alpha-tocotrienol. This product and cholesterol inhibitor I at 20 ppm were compared with the petroleum ether soluble fraction of HPBF (20% equivalent HPBF) in a group of older male White Leghorn chickens (Table 3). The results shown on Table 3 confirm those previously recorded for petroleum ether solubles of HPBF and cholestrol inhibitor I. In a final experiment, the effects of cholestrol inhibitor I and lemon grass oil on hepatocyte HMG Co-A reductase and FAS activities were tested. Both components tested in the concentration range 5-100 microgram/ml, produced a concentration-dependent suppression of HMG Co-A reductase and concentration-dependent enhancement of FAS activity (Table 4).
^1 Feeding period was four weeks; Time of killing was 0800; Data
expressed as mean ± SD; N = 8 chickens per group; HMGCoA reductase =

[3] = 2.5 ppm in corn diet, fed 3 weeks
[4] = 5.0 ppm in corn diet, fed 3 weeks
[5] = 10.0 ppm in corn diet, fed 3 weeks
[6] = 15.0 ppm in corn diet, fed 3 weeks
[7] = 20.0 ppm in corn diet, fed 3 weeks

In the case of `CC(C)=CCC/C(C)=C/CC/C(C)=C/CC[C@]1(C)CCc2c(C)c(O)c(C)c(C)c2O1` [Cholesterol inhibitor I, 2,5,7,8-tetramethyl-2 (4,8, 12-trimethyltrideca-3,7, 11-trienyl)chroman-6-ol], the “HMG-CoA Reductase, percentage of control” value [1, 3] is reported as 87 Percentage of respective contr, the “HMG-CoA Reductase” value [1, 3] is reported as 172 ± 12 pmoles of mevalonic acid synth and the “HMG-CoA Reductase, percentage of control” value [1, 4] is reported as 81 Percentage of respective contr. The “HMG-CoA Reductase” value [1, 4] was 161 ± 12 pmoles of mevalonic acid synth, the “HMG-CoA Reductase, percentage of control” value [1, 5] was 73 Percentage of respective contr and the “HMG-CoA Reductase” value [1, 5] was 144 ± 9 pmoles of mevalonic acid synth. The “HMG-CoA Reductase, percentage of control” value [1, 6] was 68 Percentage of respective contr, the “HMG-CoA Reductase” value [1, 6] was 135 ± 8 pmoles of mevalonic acid synth and the “HMG-CoA Reductase, percentage of control” value [1, 7] was 66 Percentage of respective contr. The “HMG-CoA Reductase” value [1, 7] was 130 ± 6 pmoles of mevalonic acid synth, the “HMG-CoA Reductase” value ([1]; corn diet + 5 ppm (Table 2)) was 134 ± 6 pmoles of mevalonic synthesize and the “Concentration in Serum LDL-Chol., percentage of control” value [2] was 66 Percentage of respective contr. For the same compound, the “Concentration in Serum HDL-Chol.” value ([2]; mean ± SD, N = 8) was 58 ± 3 mg/100 ml, the “Concentration in Serum LDL-Chol.” value ([2]; mean ± SD, N = 8) was 44 ± 3 mg/100 ml and the “Concentration in Serum Total Cholesterol” value ([2]; mean ± SD, N = 8) was 103 mg/100 ml.
